Measured values: US8637468B2, “Synthetic cholesterylamine-linker derivatives for agent delivery into cells” (The University of Kansas, priority 2009, dated 2014)
Like-named read-outs stand apart in the source and are kept apart here.

Legend:
[1] = test system: plasma membranes of living Jurkat lymphocytes; test: Saturation binding of fluorescent probes to living Jurkat lymphocytes (flow cytometry); parameters: species or system human; settings: for Bmax (×10^5, 16° C.) / Kd / Bmax (×10^5, 37° C.): media containing 10% FBS, free cholesterol (200 μM, 10% DMSO) as competitor; for binding to mammalian cells (affinity/efficacy, in words): high concentrations of serum (10%)
Experimental: Jurkat lymphocytes (human acute leukemia, ATCC #TIB-152) were cultivated in Roswell Park Memorial Institute (RPMI) 1640 medium supplemented with Fetal Bovine Serum (FBS, 10%), penicillin (100 units/mL), and streptomycin (100 μg/mL) in a humidified 5% CO2 incubator at 37° C. Media used for cell culture and all wash steps contained antibiotics and 10% FBS unless otherwise noted.
(§1) Cells were suspended at 300,000 cells/mL in RPMI media containing 10% FBS. Ezetimibe (100 μM; diluted 1:1000 into media from a 100 mM stock in DMSO; 0.1% final DMSO concentration), free cholesterol (200 μM; diluted 1:10 into media from a 2 mM stock in DMSO; 10% final DMSO concentration to enhance cholesterol solubility) or vehicle control (DMSO) was added in competition experiments. Cell suspensions containing the competitor or vehicle control were prepared as 1 mL aliquots in 1.5 mL eppindorf tubes. Fluorescent probes were added at concentrations from 0 nM to 2500 nM (diluted 1:1000 into media from stocks in DMSO). Once the probe was added and well mixed, the samples were split into three tubes each containing 330 μL. Cells were incubated at 16° C. for 10 min or 37° C. for 5 minutes to limit endocytosis. After this incubation, the samples were washed once with RPMI 1640 containing 0.5% FBS (to minimize efflux of the probe from the cell surface) and propidium iodide (3 μM). Samples were immediately analyzed by flow cytometry or confocal laser-scanning microscopy.
Populations of 10,000 Jurkat cells were analyzed for each sample using an Accuri C6 flow cytometer equipped with 488 nm and 640 nm solid-state lasers. Live cells were gated using both forward scattering (FSC) and side scattering (SSC) dot plots to identify cellular physical properties of size and granularity and propidium iodide to identify cells with compromised membranes. The average cellular fluorescence upon excitation at 488 nm was plotted against probe concentration, and the data analyzed as total binding (no competitor added) and a linear non-specific binding component (with cholesterol or ezetimibe as a specific competitor) to calculate specific binding curves. Using GraphPad Prism 5.0 software, these curves were analyzed with a one site with hill slope binding model to determine the relative apparent Kd and Bmax values listed in Table 1 below.
Using free cholesterol (compound 1, 200 μM, 10% DMSO) as a competitor, we quantified the relative affinities (Kd, app) and efficacies (Bmax) of compounds 4-12 in saturation binding experiments at both 16° C. (to limit endocytosis) and 37° C. (FIG. 4 and Table 1). These experiments confirmed the combined importance the N-alkyl substituent of cholesterylamine, an anionic functional group, and a spacer residue such as β-alanine to engender high affinity binding to cell surfaces and facilitate subsequent endocytosis.

Jurkat lymphocytes = test: Confocal laser scanning microscopy of living Jurkat lymphocytes treated with fluorescent probes; format: cell-based, human; settings: 2 μM, 10% serum
Experimental: FIG. 3 includes micrographs showing differential interference contrast (DIC) and confocal laser scanning microscopy of living Jurkat lymphocytes in media containing 10% serum treated at 37° C. with fluorescent compound 4 (Panels A-E), compound 6 (F-G), and compound 12 (H-I) for 5 min or 1 h (2 μM). In C and D, ezetimibe (compound 3, 100 μM in 0.1% DMSO) and cholesterol (compound 1, 200 μM in 10% DMSO) were included as competitors to block uptake via cell surface receptors.
An inverted Leica TCS SPE confocal laser-scanning microscope fitted with a Leica 63× oil-immersion objective was employed for imaging. Fluorescent probes were excited with a 488 nm solid-state laser and emitted photons were collected from 495-600 nm. Propidium iodide, used to counterstain dead cells red fluorescent, was excited with a 532 nm solid-state laser and emitted photons were collected from 650-800 nm. To image living cells, 50 μL of cells in media was pipetted to form a small droplet in the center of a coverslip fitted with a press-to-seal silicone isolator (Invitrogen). A microscope slide was added to the top of the coverslip to create a column of media containing living cells. To allow accurate comparisons of differences in cellular fluorescence, laser power and PMT gain settings were identical for all samples.
as §1, with “Once the probe was added and well mixed, the samples were split into three tubes each containing 330 μL. Cells were incubated at 16° C. for 10 min or 37° C. for 5 minutes to limit endocytosis. After this incubation, the samples were washed once with RPMI 1640 containing 0.5% FBS (to minimize efflux of the probe from the cell surface) and propidium iodide (3 μM).” left out

[2] = 16° C., 10 min, read-out: Kd, app (nM, 16° C.)
[3] = 37° C., 5 min, read-out: Kd, app (nM, 37° C.)

| Structure (SMILES) | melting point | Bmax (×10^5, 16° C.) ([1]; 16° C., 10 min) | Kd [1, 2] | Bmax (×10^5, 37° C.) ([1]; 37° C., 5 min) | Kd [1, 3] | binding to mammalian cells (affinity/efficacy, in words) [1] | cellular binding and cellular uptake compared with compound 4 (Jurkat lymphocytes; 5 min or 1 h, 37° C.) | fluorescent staining of cells (Jurkat lymphocytes; 5 minutes at 37° C.) | cellular binding, uptake and localization (Jurkat lymphocytes; after 1 hour, 37° C.) |
| --- | --- | --- | --- | --- | --- | --- | --- | --- | --- |
| Cc1cc(C(=O)N[C@@H](CCC(=O)O)C(=O)NCCC(=O)NCCCO[C@H]2CC[C@@]3(C)C(=CC[C@H]4[C@@H]5CC[C@H]([C@H](C)CCCC(C)C)[C@@]5(C)CC[C@@H]43)C2)ccc1-c1c2cc(F)c(=O)cc-2oc2cc(O)c(F)cc12 [compound 9, (4S)-5-{[3-({3-[3β-Cholest-5-en-3-yloxy]propyl}amino)-3-oxopropyl]amino}-4-{[4-(2,7-difluoro-6-hydroxy-3-oxo-3H-xanthen-9-yl)-3-methylbenzoyl]amino}-5-oxopentanoic acid] | 192 to 194 °C | 1.68 ± 0.26 ×10^5 | 954 ± 285 nM | – | – | – | – | – | – |
| Cc1cc(C(=O)N[C@@H](CCC(=O)O)C(=O)N[C@@H](CCC(=O)O)C(=O)NCCC(=O)NCCCN[C@H]2CC[C@@]3(C)C(=CC[C@H]4[C@@H]5CC[C@H]([C@H](C)CCCC(C)C)[C@@]5(C)CC[C@@H]43)C2)ccc1-c1c2cc(F)c(=O)cc-2oc2cc(O)c(F)cc12 [compound 5, (4S)-5-{[(1S)-3-Carboxy-1-({[3-({3-[3β-cholest-5-en-3-ylamino]propyl}amino)-3-oxopropyl]amino}carbonyl)propyl]amino}-4-{[4-(2,7-difluoro-6-hydroxy-3-oxo-3H-xanthen-9-yl)-3-methylbenzoyl]amino}-5-oxopentanoic acid] | – | 3.93 ± 0.64 ×10^5 | 767 ± 244 nM | 3.01 ± 0.26 ×10^5 | 449 ± 74 nM | high affinity/efficacy | – | – | – |
| Cc1cc(C(=O)N[C@@H](CCC(=O)O)C(=O)NCCC(=O)NCCC(=O)N[C@H]2CC[C@@]3(C)C(=CC[C@H]4[C@@H]5CC[C@H]([C@H](C)CCCC(C)C)[C@@]5(C)CC[C@@H]43)C2)ccc1-c1c2cc(F)c(=O)cc-2oc2cc(O)c(F)cc12 [compound 10, (4S)-4-(4-(2,7-difluoro-6-hydroxy-3-oxo-3H-xanthen-9-yl)-3-methylbenzamido)-5-((3-((3-{[3β-cholest-5-en-3-yl]amino}-3-oxopropyl)amino)-3-oxopropyl)amino)-5-oxopentanoic acid] | 192 to 194 °C | 1.86 ± 0.39 ×10^5 | 786 ± 358 nM | 2.2 ± 0.30 ×10^5 | 639 ± 190 nM | – | – | – | – |
| Cc1cc(C(=O)N[C@@H](CCC(=O)O)C(=O)NCCC(=O)NCCC(=O)OC2CC[C@@]3(C)C(=CC[C@H]4[C@@H]5CC[C@H]([C@H](C)CCCC(C)C)[C@@]5(C)CC[C@@H]43)C2)ccc1-c1c2cc(F)c(=O)cc-2oc2cc(O)c(F)cc12 (stereo partly drawn) [compound 11, (4S)-4-(4-(2,7-difluoro-6-hydroxy-3-oxo-3H-xanthen-9-yl)-3-methylbenzamido)-5-((3-((3-{[3-cholester-3-yl]oxy}3-oxopropyl)amino)-3-oxopropyl)amino)-5-oxopentanoic acid] | – | NC^b (Not calculated due to low efficacy (Bmax<0.4×105)) | – | NC^b (Not calculated due to low efficacy (Bmax<0.4×105)) | – | – | – | – | – |
| Cc1cc(C(=O)N[C@@H](CCC(=O)O)C(=O)NCC(=O)NCCNC(=O)OC2CC[C@@]3(C)C(=CC[C@H]4[C@@H]5CC[C@H]([C@H](C)CCCC(C)C)[C@@]5(C)CC[C@@H]43)C2)ccc1-c1c2cc(F)c(=O)cc-2oc2cc(O)c(F)cc12 (stereo partly drawn) [compound 12, (4S)-4-(4-(2,7-difluoro-6-hydroxy-3-oxo-3H-xanthen-9-yl)-3-methylbenzamido)-5-(3-((3-((({[3-cholester-3-y]oxy}carbonyl)amino)ethyl)amino)-2-oxoethyl)amino)-5-oxopentanoic acid] | – | NC^b (Not calculated due to low efficacy (Bmax<0.4×105)) | – | NC^b (Not calculated due to low efficacy (Bmax<0.4×105)) | – | – | substantially lower cellular binding and cellular uptake compared with compound 4 | – | – |
| Cc1cc(C(=O)N[C@@H](CCC(=O)O)C(=O)N[C@@H](CCC(=O)O)C(=O)NCCCN[C@H]2CC[C@@]3(C)C(=CC[C@H]4[C@@H]5CC[C@H]([C@H](C)CCCC(C)C)[C@@]5(C)CC[C@@H]43)C2)ccc1-c1c2cc(F)c(=O)cc-2oc2cc(O)c(F)cc12 [compound 7, (4S)-5-(((2S)-4-carboxy-1-((3-[3β-cholest-5-en-3-ylamino]propyl)amino)-1-oxobutan-2-yl)amino)-4-(4-(2,7-difluoro-6-hydroxy-3-oxo-3H-xanthen-9-yl)-3-methylbenzamido)-5-oxopentanoic acid] | 175 to 178 °C | – | – | 3.2 ± 1.3 ×10^5 | 1540 ± 1140 nM | – | – | – | – |
| CC[C@H](CC[C@@H](C)[C@H]1CC[C@H]2[C@@H]3CC=C4C[C@@H](NCCCNC(=O)CCNC(=O)[C@H](CCC(=O)O)NC(=O)c5ccc(-c6c7cc(F)c(=O)cc-7oc7cc(O)c(F)cc67)c(C)c5)CC[C@]4(C)[C@H]3CC[C@]12C)C(C)C [compound 8, (4S)-5-{[3-({3-[3β-Sitost-5-en-3-ylamino]propyl}amino)-3-oxopropyl]amino}-4-{[4-(2,7-difluoro-6-hydroxy-3-oxo-3H-xanthen-9-yl)-3-methylbenzoyl]amino}-5-oxopentanoic acid] | – | 0.73 ± 0.03 ×10^5 | 286 ± 27 nM | 1.3 ± 0.29 ×10^5 | 435 ± 221 nM | – | – | – | – |
| Cc1cc(C(=O)N[C@@H](CCC(=O)O)C(=O)NCCC(=O)NCCCN[C@H]2CC[C@@]3(C)C(=CC[C@H]4[C@@H]5CC[C@H]([C@H](C)CCCC(C)C)[C@@]5(C)CC[C@@H]43)C2)ccc1-c1c2cc(F)c(=O)cc-2oc2cc(O)c(F)cc12 [compound 4, (4S)-5-{[3-({3-[3β-Cholest-5-en-3-ylamino]propyl}amino)-3-oxopropyl]amino}-4-{[4-(2,7-difluoro-6-hydroxy-3-oxo-3H-xanthen-9-yl)-3-methylbenzoyl]amino}-5-oxopentanoic acid] | – | 2.31 ± 0.14 ×10^5 | 403 ± 49 nM | 2.54 ± 0.12 ×10^5 | 344 ± 32 nM | high affinity/efficacy | – | robust fluorescent staining of cellular plasma membranes | enhanced cellular binding, uptake of the probe, and localization of compound 4 in transferrin-positive early/recycling endosomes |
| Cc1cc(C(=O)NCC(=O)NCCC(=O)NCCCN[C@H]2CC[C@@]3(C)C(=CC[C@H]4[C@@H]5CC[C@H]([C@H](C)CCCC(C)C)[C@@]5(C)CC[C@@H]43)C2)ccc1-c1c2cc(F)c(=O)cc-2oc2cc(O)c(F)cc12 [compound 6, N-(2-{[3-({3-[3β-Cholest-5-en-3-ylamino]propyl}amino)-3-oxopropyl]amino}-2-oxoethyl)-4-(2,7-difluoro-6-hydroxy-3-oxo-3H-xanthen-9-yl)-3-methylbenzamide] | 200 to 203 °C | – | – | NC^b (Not calculated due to low efficacy (Bmax<0.4×105)) | – | – | – | – | – |
